Among the test systems are OVCAR-8 ovarian; UACC-62 melanoma; SK-MEL-28 melanoma; NCI-H460 lung; HCT-116 colon; RPMI-8226 leukemia; CAKI-1 renal; HOP-92 NSCLC; HCT-15 colon; ACHN renal; SK-MEL-2 melanoma; SF-539 CNS; OVCAR-4 ovarian; OVCAR-5 ovarian; U251 CNS; RXF 393 renal; OVCAR-3 ovarian; UACC-257 melanoma; SR leukemia; T-47D breast.
What all share (test): NCI tumour cell line growth inhibition, 48 h

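Growth conditions: 96-well plates. Treatment: test compound, 48 hours, 5 concentrations. Analysis: linear interpolation between bracketing concentrations; unreached endpoints set to highest concentration. TGI is the concentration that stops growth completely.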

Consider `CCNC(C)Cc1ccccc1` (configuration not stated), for which the TGI in the assay with OVCAR-8 ovarian, with UACC-62 melanoma, with SK-MEL-28 melanoma, with NCI-H460 lung, with HCT-116 colon and with RPMI-8226 leukemia was greater than 100 µM throughout. For the same molecule, the TGI in the assay with CAKI-1 renal, in the assay with HOP-92 NSCLC, with HCT-15 colon, in the assay with ACHN renal, in the assay with SK-MEL-2 melanoma and in the assay on SF-539 CNS was greater than 100 µM each time. In addition, the TGI in the assay on OVCAR-4 ovarian, in the assay on OVCAR-5 ovarian, with U251 CNS, in the assay with RXF 393 renal, with OVCAR-3 ovarian and in the assay on UACC-257 melanoma was greater than 100 µM each time. The molecule further displayed a TGI in the assay with SR leukemia greater than 100 µM.

As to `Cc1ccccc1C(=O)c1c(O)c2c(c(O)c1Br)CCCC2`, the TGI was 36 µM in the assay with OVCAR-8 ovarian; 29 µM in the assay on UACC-62 melanoma; 56.6 µM in the assay on NCI-H460 lung; 30.2 µM with HCT-116 colon; 57.5 µM with RPMI-8226 leukemia; 35.9 µM in the assay with CAKI-1 renal. The TGI turned out to be 40 µM in the assay on HOP-92 NSCLC; 32.9 µM with HCT-15 colon; 31.9 µM with ACHN renal; 31.3 µM in the assay on SK-MEL-2 melanoma; 33.4 µM in the assay with SF-539 CNS; 28.9 µM with OVCAR-4 ovarian. In addition, the TGI in the assay on OVCAR-5 ovarian was 34.6 µM; in the assay on U251 CNS, 31.5 µM; with RXF 393 renal, 33.7 µM; with OVCAR-3 ovarian, 27.1 µM; with UACC-257 melanoma it was 29.2 µM; with SR leukemia, 44.5 µM.

On to `CCC(C)n1c(C)nc2c1C(=O)c1ccccc1C2=O` (configuration not stated), for which the TGI is greater than 100 µM in the assay with OVCAR-8 ovarian; greater than 100 µM in the assay with UACC-62 melanoma; greater than 100 µM in the assay with SK-MEL-28 melanoma; 50.8 µM in the assay on NCI-H460 lung; greater than 100 µM in the assay on HCT-116 colon; greater than 100 µM in the assay with HOP-92 NSCLC. Also, the TGI with HCT-15 colon, in the assay on ACHN renal, with SK-MEL-2 melanoma, in the assay on SF-539 CNS, with OVCAR-4 ovarian and in the assay with U251 CNS was greater than 100 µM throughout. Besides, the TGI in the assay on RXF 393 renal is greater than 100 µM; in the assay on OVCAR-3 ovarian it was greater than 100 µM; in the assay with UACC-257 melanoma it was 93.8 µM; with SR leukemia, greater than 100 µM.

`COc1cc(C2SCC(=O)N2c2cc(Cl)c(Cl)cc2Cl)cc(OC)c1OC` (configuration not stated): the TGI was greater than 100 µM in the assay with OVCAR-8 ovarian; 97.6 µM in the assay with UACC-62 melanoma; greater than 100 µM with SK-MEL-28 melanoma; greater than 100 µM in the assay on NCI-H460 lung; greater than 100 µM in the assay on HCT-116 colon; 89.7 µM in the assay on RPMI-8226 leukemia. Besides, the TGI in the assay with CAKI-1 renal, in the assay on HOP-92 NSCLC, with HCT-15 colon, with ACHN renal, in the assay with SK-MEL-2 melanoma and with SF-539 CNS was greater than 100 µM throughout. The TGI in the assay on OVCAR-4 ovarian was greater than 100 µM; in the assay with OVCAR-5 ovarian it was greater than 100 µM; in the assay on U251 CNS, greater than 100 µM; with OVCAR-3 ovarian it was greater than 100 µM; with UACC-257 melanoma, greater than 100 µM; in the assay with SR leukemia it was 84.3 µM.

Consider `O=C(Nc1nnc(-c2ccccc2)o1)C(SC(=S)N1CCCCC1)c1ccccc1` (configuration not stated), for which the TGI was greater than 100 µM with OVCAR-8 ovarian; greater than 100 µM with SK-MEL-28 melanoma; 34.6 µM in the assay with NCI-H460 lung; 32.1 µM in the assay on HCT-116 colon; greater than 100 µM with RPMI-8226 leukemia; 77.8 µM in the assay on CAKI-1 renal. The TGI in the assay with HCT-15 colon is 29.1 µM; in the assay on T-47D breast, greater than 100 µM; with ACHN renal it was 75.7 µM; in the assay on SK-MEL-2 melanoma, 51.1 µM; with SF-539 CNS it was 71.3 µM; with OVCAR-4 ovarian it was greater than 100 µM. For the same molecule, the TGI is 82.9 µM in the assay on OVCAR-5 ovarian; 87.2 µM with U251 CNS; greater than 100 µM in the assay with RXF 393 renal; 43.4 µM in the assay with OVCAR-3 ovarian; greater than 100 µM in the assay with UACC-257 melanoma; greater than 100 µM with SR leukemia.

On to `NCCSc1nc2ccccc2s1`, for which the TGI was greater than 100 µM in the assay with OVCAR-8 ovarian; greater than 100 µM in the assay on UACC-62 melanoma; greater than 100 µM in the assay on SK-MEL-28 melanoma; greater than 100 µM with NCI-H460 lung; greater than 100 µM with HCT-116 colon; 95.7 µM in the assay on RPMI-8226 leukemia. Moreover, the TGI with CAKI-1 renal was greater than 100 µM; in the assay on HOP-92 NSCLC, 71 µM; in the assay on HCT-15 colon, greater than 100 µM; in the assay with ACHN renal, greater than 100 µM; with SK-MEL-2 melanoma, 82.2 µM; in the assay on SF-539 CNS it was 37.6 µM. Besides, the TGI is greater than 100 µM with OVCAR-4 ovarian; greater than 100 µM with OVCAR-5 ovarian; 48.3 µM in the assay with U251 CNS; 77.9 µM in the assay on RXF 393 renal; greater than 100 µM in the assay with OVCAR-3 ovarian; greater than 100 µM in the assay with UACC-257 melanoma. This molecule displayed a TGI in the assay with SR leukemia of 79.5 µM.

As to `C=C(CN(C)C)C(=O)c1ccccc1C`, the TGI in the assay with OVCAR-8 ovarian was greater than 100 µM; with UACC-62 melanoma, greater than 62.3 µM; in the assay with SK-MEL-28 melanoma it was 62.4 µM; in the assay on NCI-H460 lung it was greater than 100 µM; in the assay on HCT-116 colon, greater than 57.1 µM; in the assay with RPMI-8226 leukemia, 48.6 µM. In addition, the TGI in the assay with CAKI-1 renal is 62.6 µM; in the assay on HOP-92 NSCLC it was 33.3 µM; in the assay on HCT-15 colon, greater than 63.1 µM; with ACHN renal, 57.6 µM; in the assay with SK-MEL-2 melanoma, greater than 100 µM; in the assay on SF-539 CNS, greater than 60.8 µM. In addition, the TGI was greater than 100 µM in the assay with OVCAR-4 ovarian; greater than 100 µM in the assay with OVCAR-5 ovarian; greater than 100 µM in the assay on U251 CNS; 17.6 µM with RXF 393 renal; greater than 58.7 µM in the assay on OVCAR-3 ovarian; greater than 100 µM with UACC-257 melanoma. In addition, the TGI in the assay with SR leukemia was determined as 47.2 µM.

Consider `CC(=O)[C@@H]1[C@@H](OC(=O)CCC(C)COC2OC(CO)C(O)C(O)C2O)C[C@H]2[C@@H]3CC=C4C[C@@H](OC5OC(CO)C(OC6OC(C)C(O)C(O)C6O)C(O)C5OC5OC(C)C(O)C(O)C5O)CC[C@]4(C)[C@H]3CC[C@]12C` (some centres not stated), for which the TGI in the assay with OVCAR-8 ovarian, with UACC-62 melanoma, in the assay on SK-MEL-28 melanoma, with NCI-H460 lung, with HCT-116 colon and with RPMI-8226 leukemia was greater than 100 µM throughout. Further, the TGI with CAKI-1 renal, in the assay with T-47D breast, in the assay on ACHN renal, with SK-MEL-2 melanoma, in the assay on OVCAR-4 ovarian and in the assay with OVCAR-5 ovarian was greater than 100 µM in each case. For the same molecule, the TGI in the assay on U251 CNS, in the assay with RXF 393 renal, with OVCAR-3 ovarian, in the assay on UACC-257 melanoma and in the assay with SR leukemia was greater than 100 µM throughout.

For `Cc1cc(N(CCC#N)CCC#N)ccc1/C(N=Nc1ccc(Cl)cc1)=N\NC(=O)c1cc(Cl)ccc1O`, the TGI with OVCAR-8 ovarian, in the assay with UACC-62 melanoma, in the assay with NCI-H460 lung, with HCT-116 colon, with RPMI-8226 leukemia and in the assay with CAKI-1 renal was greater than 100 µM in each case. Besides, the TGI in the assay on HCT-15 colon was greater than 100 µM; in the assay on T-47D breast, greater than 100 µM; in the assay with ACHN renal, greater than 100 µM; in the assay with SK-MEL-2 melanoma, greater than 100 µM; in the assay on SF-539 CNS, 73.6 µM; in the assay on OVCAR-4 ovarian it was greater than 100 µM. For the same molecule, the TGI was greater than 100 µM in the assay on OVCAR-5 ovarian; greater than 100 µM with U251 CNS; 74.5 µM in the assay on RXF 393 renal; 66.2 µM in the assay on OVCAR-3 ovarian; greater than 100 µM with UACC-257 melanoma; greater than 100 µM in the assay with SR leukemia.

Turning to `C=C(C)C(=O)O[C@H]1C/C(CO)=C/CCC(=C)C(OC(C)=O)[C@H]2OC(=O)C(=C)[C@H]12` (some centres not stated), the TGI with OVCAR-8 ovarian stood at 39.8 µM; in the assay with UACC-62 melanoma, 23 µM; in the assay with SK-MEL-28 melanoma, 20.6 µM; with NCI-H460 lung, 41.7 µM; in the assay on HCT-116 colon it was 13.7 µM; in the assay with RPMI-8226 leukemia it was 19.3 µM. The TGI was 21.5 µM with CAKI-1 renal; 33.6 µM with HCT-15 colon; 28 µM with T-47D breast; 22.9 µM in the assay on ACHN renal; 35.6 µM in the assay on SK-MEL-2 melanoma; 33.6 µM in the assay with SF-539 CNS. Moreover, the TGI in the assay with OVCAR-5 ovarian amounted to 88.7 µM; in the assay with U251 CNS it was 35.8 µM; in the assay on OVCAR-3 ovarian, 18.7 µM; in the assay on UACC-257 melanoma, 24.8 µM; in the assay on SR leukemia, 17.5 µM.

With `Cc1ccc2c3c1O[C@H]1c4[nH]c5ccccc5c4C[C@@]4(O)[C@@H](C2)N(C)CC[C@]314`, the TGI in the assay on OVCAR-8 ovarian stood at 34.8 µM; in the assay with UACC-62 melanoma it was 31.1 µM; in the assay with HCT-116 colon, 31 µM; in the assay on RPMI-8226 leukemia, 31.6 µM; in the assay with CAKI-1 renal, 34.4 µM; with HOP-92 NSCLC it was 23.2 µM. In addition, the TGI with HCT-15 colon turned out to be 32.5 µM; in the assay on ACHN renal, 29.5 µM; with SK-MEL-2 melanoma it was 35.3 µM; in the assay with SF-539 CNS, 31.9 µM; in the assay on OVCAR-4 ovarian it was 34 µM; in the assay on OVCAR-5 ovarian it was 38.2 µM. The TGI in the assay with U251 CNS came out at 29.5 µM; in the assay on RXF 393 renal, 22.7 µM; in the assay with UACC-257 melanoma, 28.2 µM; in the assay on SR leukemia it was 41.9 µM.

Regarding `CC(C)(C)c1cc(CC2C(=O)c3ccccc3C2=O)cc(C(C)(C)C)c1O`, the TGI was 14.7 µM with OVCAR-8 ovarian; 17.7 µM with UACC-62 melanoma; 43.3 µM in the assay on NCI-H460 lung; 14.1 µM in the assay on HCT-116 colon; 3.34 µM with RPMI-8226 leukemia; 20.4 µM in the assay with CAKI-1 renal. In addition, the TGI was 1.07 µM with HOP-92 NSCLC; 14.8 µM in the assay on HCT-15 colon; greater than 100 µM in the assay with ACHN renal; 10.8 µM with SK-MEL-2 melanoma; 16.7 µM in the assay on SF-539 CNS; greater than 100 µM with OVCAR-4 ovarian. Moreover, the TGI was 57.6 µM in the assay with OVCAR-5 ovarian; 13.2 µM in the assay with U251 CNS; 9.53 µM in the assay on OVCAR-3 ovarian; 15.4 µM in the assay with UACC-257 melanoma; 16.6 µM with SR leukemia.
